According to the CheMixHub viscosity set:

Assay: xn = mol fraction of the nth substance listed

C1CC[NH2+]C1.CCCCCCCC(=O)[O-] + CCO
viscosity [mPa·s], 101 kPa
Conditions	x1 = 0.1638	x1 = 0.3038	x1 = 0.4308	x1 = 0.5046	x1 = 0.5837	x1 = 0.7453	x1 = 0.838	x1 = 0.9223
293.15 K	3.7	8.2	14	17.06	23.1	36.6	47.3	58.2
298.15 K	3.85	7.02	12.99	16.3	21.3	34.08	44.23	52.4
303.15 K	3	5.7	10.5	13.39	17.6	29.14	36.3	42.7
308.15 K	2.9	7.3	11.21	14.5	18.1	25.4	31.3	36.4
313.15 K	2.7	6.8	9.8	11.79	15	22	26.8	30.3

O=S1(=O)CCCC1 + CCO
viscosity [mPa·s], 101 kPa
Conditions	293.15 K	298.15 K	303.15 K	308.15 K	313.15 K	323.15 K
x1 = 0.06211	1.21	1.103	1.006	–	0.845	0.714
x1 = 0.068	–	–	1.008	0.9247	0.8482	–
x1 = 0.1147	–	–	1.063	0.976	0.8945	–
x1 = 0.131	1.316	1.197	1.094	–	0.919	0.778
x1 = 0.2039	1.49	1.35	1.228	–	1.031	0.875
x1 = 0.2119	–	–	1.241	1.135	1.039	–
x1 = 0.271	–	–	1.38	1.264	1.155	–
x1 = 0.283	1.734	1.57	1.421	–	1.192	1.009
x1 = 0.3691	2.087	1.883	1.699	–	1.421	1.202
x1 = 0.374	–	–	1.696	1.546	1.417	–
x1 = 0.4622	2.558	2.292	2.09	–	1.734	1.467
x1 = 0.4742	–	–	2.116	1.922	1.755	–
x1 = 0.5688	3.306	2.96	2.668	–	2.207	1.857
x1 = 0.5738	–	–	2.691	2.436	2.216	–
x1 = 0.6865	4.608	4.075	3.682	–	3.001	2.511
x1 = 0.7403	–	–	4.239	3.82	3.446	–
x1 = 0.8141	6.959	6.153	5.503	–	4.423	3.632
x1 = 0.8574	–	–	6.141	5.47	4.899	–

Cc1cccc(C)c1 + CCOC(C)=O
viscosity [mPa·s], 101 kPa
Conditions	298.15 K	308.15 K
x2 = 0.048	0.568	0.515
x2 = 0.1498	0.541	0.492
x2 = 0.2498	0.518	0.472
x2 = 0.3493	0.498	0.454
x2 = 0.4469	0.481	0.439
x2 = 0.4972	0.473	0.432
x2 = 0.5494	0.466	0.425
x2 = 0.6495	0.454	0.414
x2 = 0.7511	0.444	0.404
x2 = 0.8509	0.436	0.396
x2 = 0.9461	0.43	0.39

O=S1(=O)CCCC1 + CCOC(C)=O
303.15 K, 101 kPa
Conditions	viscosity [mPa·s]
x1 = 0.8548	5.285
x1 = 0.9799	9.205

Nc1ccccc1Cl + CCOCCO
303.15 K, 101 kPa
Conditions	viscosity [mPa·s]
x1 = 0.0966	2.088
x1 = 0.1696	2.266
x1 = 0.2725	2.507
x1 = 0.3613	2.709
x1 = 0.4791	2.967
x1 = 0.5648	3.147
x1 = 0.68	3.372
x1 = 0.7804	3.544
x1 = 0.8884	3.696

O=S1(=O)CCCC1 + CCc1ccccc1
viscosity [mPa·s]
Conditions	101 kPa	101.3 kPa
303.15 K, x2 = 0.9106	0.7155	0.7155
313.15 K, x2 = 0.7254	0.9235	–
323.15 K, x2 = 0.7254	0.8125	0.8125
323.15 K, x2 = 0.8194	0.6653	0.6653

CCCCn1cc[n+](C)c1.F[B-](F)(F)F + CN1CCCC1=O
101 kPa
Conditions	viscosity [mPa·s]
298.15 K, x1 = 0.2779	9.05
298.15 K, x1 = 0.957	86.3
303.15 K, x1 = 0.2779	7.82
303.15 K, x1 = 0.3423	9.48
308.15 K, x1 = 0.4657	9.19

CCCCCCCCCCCCCCCCCC(=O)O + CN1CCC[C@H]1c1cccnc1
viscosity [mPa·s], 101 kPa
Conditions	x2 = 0.3991	x2 = 0.4952	x2 = 0.6034	x2 = 0.6986	x2 = 0.7961	x2 = 0.8973
298.15 K	–	–	–	21.18	14.22	7.79
323.15 K	26.04	18.6	12.3	8.571	6.045	4.003

CCC(C)O (stereo unspecified) + CN(C)C=O
viscosity [mPa·s], 101 kPa
Conditions	298.15 K	303.15 K	308.15 K	313.15 K
x2 = 0.085	2.48	2.11	1.78	1.52
x2 = 0.164	2.2	1.83	1.57	1.35
x2 = 0.2446	2	1.65	1.41	1.23
x2 = 0.3503	1.8	1.5	1.29	1.13
x2 = 0.4398	1.65	1.39	1.19	1.07
x2 = 0.5035	1.51	–	–	–
x2 = 0.5738	1.44	1.23	1.08	1.01
x2 = 0.6512	1.32	1.14	1.02	0.97
x2 = 0.7515	1.17	1.03	0.93	0.91
x2 = 0.841	1.03	0.93	0.85	0.86
x2 = 0.9435	0.88	0.82	0.76	0.79

CCCCn1cc[n+](C)c1.F[B-](F)(F)F + CN(C)C=O
101.33 kPa
Conditions	viscosity [mPa·s]
293.15 K, x1 = 0.24	8.99
293.15 K, x1 = 0.83	76.67
298.15 K, x1 = 0.335	6.371
298.15 K, x1 = 0.34	8.92
298.15 K, x1 = 0.3986	7.783
298.15 K, x1 = 0.8976	78.41
298.15 K, x1 = 0.94	88.43
303.15 K, x1 = 0.43	8.05
303.15 K, x1 = 0.94	74.19
308.15 K, x1 = 0.55	9.58

Cc1ccc(O)cc1 + CN(C)C=O
viscosity [mPa·s], 101 kPa
Conditions	303.15 K	308.15 K	313.15 K	318.15 K
x1 = 0.0758	0.908	0.787	0.769	0.732
x1 = 0.1553	1.098	0.988	0.913	0.845
x1 = 0.2404	1.444	1.208	–	1.087
x1 = 0.3298	1.832	1.611	1.465	1.339
x1 = 0.4247	2.452	2.165	1.952	1.755
x1 = 0.5155	–	2.886	–	–
x1 = 0.5255	3.351	–	–	2.273
x1 = 0.5256	–	–	2.562	–
x1 = 0.6327	4.534	3.905	3.375	2.954
x1 = 0.7472	6.256	5.298	4.489	3.852
x1 = 0.8692	7.994	6.386	5.777	4.485

CC(O)CC(C)(C)O (stereo unspecified) + CN(C)c1ccccc1
viscosity [mPa·s], 101 kPa
Conditions	x1 = 0.0947	x1 = 0.1893	x1 = 0.2866	x1 = 0.3878	x1 = 0.4988	x1 = 0.5875	x1 = 0.6895	x1 = 0.7899	x1 = 0.8859
308.15 K	1.042	1.107	1.216	1.395	1.761	2.037	2.999	5.285	9.275
318.15 K	0.8643	0.9274	1.015	1.185	1.416	1.688	2.505	4.534	8.117

C1CC[NH2+]C1.CCCCCCCC(=O)[O-] + CO
viscosity [mPa·s], 101 kPa
Conditions	x1 = 0.1021	x1 = 0.2025	x1 = 0.3023	x1 = 0.3896	x1 = 0.5185	x1 = 0.5972	x1 = 0.7086	x1 = 0.7895	x1 = 0.844
293.15 K	4.58	7.4	10.73	14.46	22.6	28	38.68	47.37	55.2
298.15 K	3.6	6.53	10.37	13.1	19.44	24.57	33.84	41.18	48.18
303.15 K	3.6	6	8.9	10.82	15.84	20.9	27.67	34.45	38.6
308.15 K	4.08	5.69	8.64	10.07	15.33	19.02	24.21	29.56	33.63
313.15 K	4	5.4	7.17	9.15	13.26	15.69	21.37	25.39	28.41

Cc1cccc(C)c1 + CO
293.15 K, 101 kPa
Conditions	viscosity [mPa·s]
x2 = 0.2	0.622
x2 = 0.4	0.626
x2 = 0.5	0.646
x2 = 0.6	0.662
x2 = 0.7	0.654
x2 = 0.8	0.641
